# According to US9433663B2, “Mobilization of hematopoietic stem cells” (Children's Hospital Medical Center, priority 2008, dated 2016):
# Columns and labels:
# Rac1 = target: T1, Rac1 (Mus musculus, UniProt P63001); assay: Rho GTPase effector pull-down in murine LDBM cells, Rac1; type: cell-based; conditions: parallel pull-down assay
# T1 construct: endogenous in cells; host or cells: murine LDBM cells
# Protocol: (§1) To analyze the effects of CASIN on the formation of active GTP-bound Cdc42, RhoA, and Rac1, effector pulldown assays were carried out as described previously. Cdc42GAP^−/− MEF, LDBM, CD34^+ hCB cells were treated with CASIN at doses of 5-20 μM in parallel with vehicle control for 2 hrs after overnight starvation, and stimulated with cytokines subsequently. And then cells were lysed in a buffer containing 20 mM Tris-HCL (pH 7.6), 100 mM NaCl, 1% Triton X-100, 10 mM MgCl2, 2 mM NaF, and Protease inhibitor cocktail (Roche Diagnostics). Lysates were incubated with GST-P21-binding domain of PAK1 for RAC1-GTP and Cdc42-GTP, and GST-RBD domain of Rhotekin for RhoA-GTP respectively. Both bound- and unbound-form of Rho GTPases were probed by immunoblotting with antibodies specific for Rac1 (BD biosciences), Cdc42 (BD biosciences), and RhoA (cell signaling).
# 32D myeloid progenitors = assay: adhesion of 32D progenitors to fibronectin fragment CH296; type: cell-based, murine; conditions: gradient CASIN treatments
# Excerpt: (§2) To shed light on potential roles of CASIN in HSPC mobilization, the effects of CASIN on Cdc42-related cellular functions was studied, including adhesion, migration, and F-actin polymerization of progenitor cells in 32D myeloid progenitors. […] SDF-1α stimulation causes a reorganization of F-actin into a cortical ring around the cells. […] Thirdly, to gain further insight into cellular specificity and efficacy of CASIN, and also to rule out possible toxic effects by CASIN, Cdc42-involved BM progenitor cell functions were examined, including proliferation, adhesion, migration, and F-actin polymerization, in Cdc42^+/+ cells in parallel with Cdc42^−/− cells. In line with additional studies in a Cdc42 conditional knockout mouse model as described herein, Cdc42^−/− LDBM cells have increased CFU-forming progenitors compared to those of Cdc42^+/+.
# [1] = system: Lin^−c-Kit^+ BM progenitors; assay: F-actin immunofluorescence in Lin−c-Kit+ BM progenitors; type: cell-based, murine; conditions: double-sorted Lin^−c-Kit^+ BM progenitors; CASIN pre-treatment at 5 or 10 μM
# Excerpt: as §2
# Cells then were stimulated with 100 ng/ml SDF-1α for 45 secs, and further stained with Rhodamine/Phalloidin for actin and DAPI for nucleus as described herein.
# [2] = system: human CD34^+ umbilical cord blood cells; assay: adhesion of human CD34+ HCB cells; type: cell-based; conditions: 5 μM
# Protocol: FIG. 4B. Relative adhesion of CD34^+ HCB cells in the presence of CASIN at dose of 5 μM in comparison to that of control.
# To begin to study potential utility of CASIN in human hematopoietic stem cell mobilization, a series of cellular assays were carried out to determine the effects on human CD34^+ umbilical cord blood cells (HCBs). […] The effects of CASIN on human hematopoietic cell mobilization was therefore tested using a well established preclinical in vivo model (NOD/SCID-Hcb) of human hematopoietic function, where fresh CD34^+ hCB cells were transplanted into sub-lethally irradiated NOD/SCIDs by intrafemoral injection, and repopulated and maintained human hematopoietic reconstitution in the bone marrow of NOD/SCID recipient mice (FIG. 9b, FIG. 11) (Larochelle, A. et al. Nat Med 2, 1329-1337 (1996); Bhatia, M., et al. Proc Natl Acad Sci USA 94, 5320-5325 (1997)). Intravenous injections of CASIN were applied when human cells were well engrafted in the NOD/SCID recipients.
# N-RasMA93 cells = assay: F-actin reorganization of N-RasMA93 leukemia cells; type: cell-based, human; conditions: in vitro
# Protocol: FIG. 5A. SDF-1α induced F-actin polymerization without or with gradient CASIN pre-treatments was determined by MFI using FACS analysis.
# Like normal HSCs, their malignant counterpart, leukemia initiating cells (LICs) reside in their BM niches that provide the structural and physiological conditions supporting their survival and growth. LICs are resistant to traditional chemotherapy by interacting with their BM microenvironment, which are the culprits of leukemia relapses after a period of remission induced by chemotherapy. Detachment of LICs from their niche by CASIN would be a valuable supplementary therapy to the traditional cancer therapies (e.g., chemotherapies). First of all, in vitro effects of CASIN were examined in adhesion, migration, and F-actin polymerization of LICs, each of which is independently important for the retention of LICs in BM niches. Retroviral transduction of an MLL-AF9 fusion cDNA together with N-Ras oncogene into normal human CD34^+cord blood cells led to the establishment of cultures of N-Ras-MA93 cells that can initiate acute myeloid leukemia in NOG mice. […] To address it, a human AML model was set up by transplanting N-RasMA93 cells into NOG mice intravenously.
# murine HSCs = assay: Example 7 competitive repopulating assay of mobilized HSCs; type: in vivo, mice; conditions: competitive repopulating experiments, CASIN-mobilized C57Bl/6 donors
# Excerpt: Although mobilization of HPC may be of use for short-term repopulation in a transplant setting, HSCs are required for long-term repopulation. To assess mobilization effect of CASIN on murine HSCs, a competitive repopulating assay is used. Basically, donor cells are harvested from peripheral blood of C57Bl/6 mice (CD45.2) after mobilization with CASIN or control medium. BM cells from nonirradiated B6.BoyJ (CD45.1) mice are served as competitor cells. Dilutions of donor blood cells from mobilized C57Bl/6 mice that contain long-term repopulating (LTR) cells compete with marrow cells of recipient B6.BoyJ mice at ratio of 3:1, 2:1, and 1:1 for engraftment in lethally-irradiated recipients. Donor chimerism is assessed using CD45 congenic markers by flow cytometry at 1, 2, 3, and 4 months posttransplantation. […] Donor chimerism again is assessed in the secondary mice based on the CD45 congenic markers.
# The mobilization effect of CASIN on HSCs in comparison or combination with G-CSF is assessed under the following four mobilization groups: (1) Control medium mobilization group; (2) CASIN mobilization group; (3) G-CSF mobilization group (G-CSF: twice a day for 2 days); (4) CASIN plus G-CSF (twice a day for 2 days) mobilization group. […] The mobilization effects under different groups are analyzed based on the chimerism of donor-derived cells.
# Cdc42 = Cdc42 (Mus musculus, UniProt P60766); assay: Rho GTPase effector pull-down in murine LDBM cells, Cdc42; type: cell-based; set-up: endogenous in cells; host or cells: murine low density bone marrow (LDBM) cells
# Sequence of Cdc42 (P60766 whole entry): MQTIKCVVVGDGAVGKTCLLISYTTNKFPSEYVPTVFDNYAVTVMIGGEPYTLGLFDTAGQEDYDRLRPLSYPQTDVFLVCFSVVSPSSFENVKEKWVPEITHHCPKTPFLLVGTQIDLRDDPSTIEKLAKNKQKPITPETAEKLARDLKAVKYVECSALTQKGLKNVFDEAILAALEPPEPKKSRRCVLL
# Protocol: as §1
structure (smiles),measurement,setting,value
OCCNC1CCCc2c1[nH]c1ccc(-c3ccccc3)cc21 (centres unmarked) [CASIN],Rac1 activity,Rac1,no effects
same,percentages of adherent 32D cells to CH296,32D myeloid progenitors,significantly reduced dose-dependently
same,SDF-1α mediated reorganization of F-actin into cortical actin ring,[1],lost their capacities to reorganize F-actin into the cortical actin ring
same,adhesion activity of human progenitors,[2],significantly dampened
same,F-actin reorganization capacity of N-RasMA93 cells,N-RasMA93 cells,significantly impaired
same,engraftment of donor derived cells in recipient B6.BoyJ mice,murine HSCs,significant engraftment of donor derived cells in a dilution-dependent pattern
same,Cdc42 activity,"Cdc42; pre-treatment at 5 and 10 μM, mixed cytokine stimulation",dose-dependent inhibition
same,reversibility of Cdc42 activity inhibition,Cdc42; removal of CASIN by a pre-wash,reversible
